Publication PMC10095864, “Targeting HIV-1 Reverse Transcriptase Using a Fragment-Based Approach” (Molecules, 2023)
Like-named read-outs stand apart in the source and are kept apart here.

Columns and labels:
recombinant WT HIV-1 RT = molecular target: T1, recombinant WT HIV-1 RT (Human immunodeficiency virus type 1 group M subtype B, UniProt P03367); test: biochemical; conditions: for IC50: RT Inhibition—IC50 ± SEM, WT, WT RT DDDP activity, PicoGreen or 33P radiolabeled assay, value not marked as PicoGreen, n ≥ 2; for Ligand efficiency (LE): binding to WT RT, LE = −1.4(logIC50)/N
T1 construct: The p66/p51 HIV-1 RT heterodimer engineered with a N-terminal histidine tag; His tag (histidine tag) (N); made in house; host or cells: Escherichia coli strain M15 (vector pRT6H-PR)
Description: (§1) The inhibitory activity of all compounds was evaluated in vitro in assays that measure the DNA-dependent DNA polymerase (DDDP) activity of HIV-1 RT. Compounds were tested against recombinant WT and drug-resistant HIV-1 RT mutants (K103N, Y181C or K103N/Y181C). […] The IC50 value of nevirapine was determined in parallel to control for the performance of the assay. […] These RT mutations either reduce the rate of entry of NNRTIs to the binding pocket (K103N) or remove aromatic interactions that favor binding (Y181C). Initially, compound IC50 values were determined in an assay that quantifies DDDP activity mediated by HIV-1 RT using a radiolabeled ^33PdTTP substrate and more recently using a nonradioactive PicoGreen-based spectrophotometric assay.
(§2) Recombinant HIV-1 RT: The p66/p51 HIV-1 RT heterodimer engineered with a N-terminal histidine tag was expressed from the pRT6H-PR vector (provided by Nicolas Sluis-Cremer) which is based on pRT6H-PROT [37], except that the RT coding region is derived from the infectious molecular clone xxLAI [38]. This xxLAI clone contains the HIV-1LAI backbone and is engineered with silent mutations introducing Xma I and Xba I sites in the RT coding region at nucleotide positions 40–45 and 1470 to 1475, respectively. pRT6H-PR expressing the NNRTI drug-resistant mutations K103N, Y181C and K103N/Y181C were generated by subcloning Xma I/Xba I fragments in xxLAI harboring the desired NNRTI mutations (Giacobbi NS and Sluis-Cremer 2017 AAC) into the corresponding restriction sites in the RT coding region of p6HRT-PR. RT was expressed in Escherichia coli strain M15 and purified using Ni-NTA chromatography as previously described. RT concentrations were determined spectrophotometrically at 280 nm using an extinction coefficient (e280) of 260, 450 M^−1 cm^−1.
(§3) Nevirapine was included in assays as a positive control for inhibiting RT polymerase activity. The DDDP assay was performed by first adding 25 ng of HIV-1 RT to test compound in 96-well plates followed by initiating RT polymerase activity by adding 200 ng of activated calf thymus (ACT) DNA (Sigma Aldrich), 0.2 µCi ^33P-α-dTTP (Perkin Elmer), 50 mM Tris-HCl pH 7.8 50 mM KCl, […], 50 µM dNTP mix (Bioline), 0.1 mg/mL bovine serum albumin (New England Biolabs), 0.01% IGEPAL (Sigma) and 1 mM dithiothreitol. Reactions contained 2.5% dimethyl sulfoxide (DMSO). Following incubation at 37 °C for 10 min, samples from duplicate wells were applied to Whatman DE81 ion-exchange paper (GE Healthcare); dried membranes were washed in 2X saline-sodium citrate (SSC) buffer; and incorporated counts were quantified using an FLP-2000 phosphorimager (Fujifilm) or Typhoon Trio Phosphorimager (GE Healthcare) as published. Dose–response curves were generated using PRISM GraphPad version 8 by plotting the log transformed drug concentrations against percentage inhibition of DDDP activity compared to the no drug control using non-linear regression analysis.
(§4) Non-radioactive DDDP Assay: DDDP assays were also performed using a PicoGreen based spectrophotometric assay to detect double-stranded DNA synthesized by recombinant HIV-1 RT [15]. Assays were performed as described for the […] DDDP assay except that instead of ACT, the reaction contained 40 nM of a template/primer comprising a 200 nt DNA template (5′-[…] […]-3′) annealed to a 18 nucleotide DNA primer (5′-[…]-3′), 50 mM Tris-HCl pH 7.8, 50 mM KCl, 10 mM MgCl2 and 50 µM dNTP mix.

HIV-1 RT K103N mutant = molecular target: T2, HIV-1 RT K103N mutant (Human immunodeficiency virus type 1 group M subtype B, UniProt P03367, K702N); test: DDDP activity assay, K103N RT mutant; assay type: biochemical; conditions: PicoGreen or 33P radiolabeled assay, n ≥ 2, read-out: RT Inhibition—IC50 ± SEM, K103N
T2 construct: The p66/p51 HIV-1 RT heterodimer engineered with a N-terminal histidine tag; His tag (histidine tag) (N); made in house; host or cells: Escherichia coli strain M15 (vector pRT6H-PR)
Description: as §1
Recombinant HIV-1 RT: The p66/p51 HIV-1 RT heterodimer engineered with a N-terminal histidine tag was expressed from the pRT6H-PR vector (provided by Nicolas Sluis-Cremer) which is based on pRT6H-PROT [37], except that the RT coding region is derived from the infectious molecular clone xxLAI [38]. […] RT concentrations were determined spectrophotometrically at 280 nm using an extinction coefficient (e280) of 260, 450 M^−1 cm^−1. […]

HIV-1 RT Y181C mutant = molecular target: T3, HIV-1 RT Y181C mutant (Human immunodeficiency virus type 1 group M subtype B, UniProt P03367, Y780C); test: DDDP activity assay, Y181C RT mutant; assay type: biochemical; conditions: PicoGreen or 33P radiolabeled assay, n ≥ 2, read-out: RT Inhibition—IC50 ± SEM, Y181C
T3 construct: The p66/p51 HIV-1 RT heterodimer engineered with a N-terminal histidine tag; His tag (histidine tag) (N); made in house; host or cells: Escherichia coli strain M15 (vector pRT6H-PR)
Description: as §1
Recombinant HIV-1 RT: The p66/p51 HIV-1 RT heterodimer engineered with a N-terminal histidine tag was expressed from the pRT6H-PR vector (provided by Nicolas Sluis-Cremer) which is based on pRT6H-PROT [37], except that the RT coding region is derived from the infectious molecular clone xxLAI [38]. […] RT concentrations were determined spectrophotometrically at 280 nm using an extinction coefficient (e280) of 260, 450 M^−1 cm^−1.
Nevirapine was included in assays as a positive control for inhibiting RT polymerase activity. […] Following incubation at 37 °C for 10 min, samples from duplicate wells were applied to Whatman DE81 ion-exchange paper (GE Healthcare); dried membranes were washed in 2X saline-sodium citrate (SSC) buffer; and incorporated counts were quantified using an FLP-2000 phosphorimager (Fujifilm) or Typhoon Trio Phosphorimager (GE Healthcare) as published. […]

His-tagged HIV-1 RT WT = molecular target: T4, His-tagged HIV-1 RT WT (Human immunodeficiency virus type 1 group M subtype B, UniProt P03367); test: Surface plasmon resonance, WT RT; assay type: binding
T4 construct: The p66/p51 HIV-1 RT heterodimer engineered with a N-terminal histidine tag; His tag (histidine tag) (N); made in house; host or cells: Escherichia coli strain M15 (vector pRT6H-PR)
Description: (§5) Compound binding to recombinant HIV-1 RT was measured by surface plasmon resonance (SPR). SPR is an optical biosensor detection method that involves passing an analyte (often a fragment) in a buffer solution over a gold surface chip with an immobilized protein (RT enzyme) and detecting the change in plasmon resonance angle which is dependent on the refractive index of the medium near the surface. As compounds bind to the target protein, the refractive index changes proportionally to the extent of binding. This can then be used to measure the association and dissociation kinetics of binding as well as the compound’s affinity for binding.
(§6) SPR assays were performed on a Biacore S200 (GE Healthcare). His-tagged RT (WT, K103N, Y181C or K103N/Y181C) was immobilized on the surface of a Biacore compatible NIHC 1500M (Xantec) chip according to manufacturer’s instructions. Following 3 injections 300 s each of 0.5 M EDTA, the chip surface was activated with a 120 s injection of 5 mM NiCl2 followed by a 2100 s injection of 130 nM RT. The final immobilization level of RT was typically 14,000–27,000 RU. SPR experiments were carried out at 25 °C using a flow rate of 50 µL/min in running buffer. The running buffer was 1.053 × (HBS pH 7.4 + 50 µM EDTA + 0.005% Tween-20). Compounds were provided as 200 mM stocks and diluted in running buffer to obtain the concentrations required for dose-response studies (0, 6.25, 12.5, 25, 50, 100 and 200 µM). Raw sensorgram data were analyzed using Biacore S200 Evaluation Software. Dose-response determinations were evaluated using a 1:1 binding model. KD values were determined by Biacore S200 Evaluation Software Version 1.0. assuming 1:1 binding. For compounds approaching saturation, Rmax was floated. For compounds with insufficient curvature, Rmax was fixed based on a control. Errors were determined as the standard error in the dose-response fit, as calculated by Biacore S200 Evaluation Software.

[1] = molecular target: T5, His-tagged HIV-1 RT K103N (Human immunodeficiency virus type 1 group M subtype B, UniProt P03367, K702N); test: Surface plasmon resonance, K103N RT; conditions: ± standard error of dose–response fit, n = 1; NB = no binding observed; read-out: SPR—KD, K103N
T5 construct: The p66/p51 HIV-1 RT heterodimer engineered with a N-terminal histidine tag; His tag (histidine tag) (N); made in house; host or cells: Escherichia coli strain M15 (vector pRT6H-PR)
Description: as §5, §6

[2] = molecular target: T6, His-tagged HIV-1 RT Y181C (Human immunodeficiency virus type 1 group M subtype B, UniProt P03367, Y780C); test: Surface plasmon resonance, Y181C RT; conditions: ± standard error of dose–response fit, n = 1; NB = no binding observed; read-out: SPR—KD, Y181C
T6 construct: The p66/p51 HIV-1 RT heterodimer engineered with a N-terminal histidine tag; His tag (histidine tag) (N); made in house; host or cells: Escherichia coli strain M15 (vector pRT6H-PR)
Description: as §5
(§7) SPR assays were performed on a Biacore S200 (GE Healthcare). His-tagged RT (WT, K103N, Y181C or K103N/Y181C) was immobilized on the surface of a Biacore compatible NIHC 1500M (Xantec) chip according to manufacturer’s instructions. Following 3 injections 300 s each of 0.5 M EDTA, the chip surface was activated with a 120 s injection of 5 mM NiCl2 followed by a 2100 s injection of 130 nM RT. […] Raw sensorgram data were analyzed using Biacore S200 Evaluation Software. Dose-response determinations were evaluated using a 1:1 binding model. KD values were determined by Biacore S200 Evaluation Software Version 1.0. assuming 1:1 binding. […] Errors were determined as the standard error in the dose-response fit, as calculated by Biacore S200 Evaluation Software.

[3] = molecular target: T7, HIV-1 RT K103N/Y181C mutant (Human immunodeficiency virus type 1 group M subtype B, UniProt P03367, K702N/Y780C); test: DDDP activity assay, K103N/Y181C RT mutant; assay type: biochemical
T7 construct: The p66/p51 HIV-1 RT heterodimer engineered with a N-terminal histidine tag; His tag (histidine tag) (N); made in house; host or cells: Escherichia coli strain M15 (vector pRT6H-PR)
Description: as §1, §2, §3, §4

[4] = test system: HIV-1 RT (WT RT construct RT35A); conditions: assay detects inhibition of both DNA polymerase and RNase H activity; read-out: IC50 (Bauman et al.); cited from earlier work
[5] = test system: NNRTI-binding pocket (NNIBP) of HIV-1 RT; design: method as in PMID 24002095; conditions: cited from earlier work
[6] = test system: HIV-1 RT K103N/Y181C mutant; test: DDDP activity assay, K103N/Y181C RT mutant; assay type: biochemical; conditions: nonsignificant
Description: as §1, §2, §3, §4

[7] = molecular target: T8, His-tagged HIV-1 RT K103N/Y181C (Human immunodeficiency virus type 1 group M subtype B, UniProt P03367, K702N/Y780C); test: Surface plasmon resonance, K103N/Y181C RT; assay type: binding
T8 construct: The p66/p51 HIV-1 RT heterodimer engineered with a N-terminal histidine tag; His tag (histidine tag) (N); made in house; host or cells: Escherichia coli strain M15 (vector pRT6H-PR)
Description: as §5, §7

[8] = test system: His-tagged HIV-1 RT K103N/Y181C; test: Surface plasmon resonance, K103N/Y181C RT; assay type: binding; conditions: SPR
Description: as §5, §7

Compound | IC50 (recombinant WT HIV-1 RT) [µM] | Ligand efficiency (LE) (recombinant WT HIV-1 RT) [kcal/mol/HA] | Kd (His-tagged HIV-1 RT WT) [µM] | Kd [1] [µM] | Kd [2] [µM] | IC50 [3] [µM] | further results
CCOC(=O)c1cnn2cccc(Br)c12 [compound 6, Ethyl 4-Bromopyrazolo[1,5-a]pyridine-3-carboxylate] | 159 ± 29 | 0.35 | 598 ± 15 | 1400 ± 45 | 1190 ± 47 |  | IC50 (HIV-1 RT K103N mutant): 846 ± 42 µM; IC50 (HIV-1 RT Y181C mutant): 850 ± 187 µM
CCOC(=O)c1cnn2ccc(N)cc12 [compound 8, Ethyl 5-Aminopyrazolo[1,5-a]pyridine-3-carboxylate] | > 1000 |  | 522 ± 27 | 621 ± 36 | 610 ± 32 |  | 
CCOC(=O)c1cnn2ccccc12 [compound B-1, ethyl pyrazolo[1,5-a]pyridine-3-carboxylate, reference compound] |  |  |  |  |  | 208 | Kd (His-tagged HIV-1 RT WT; read-out: SPR—KD, WT, ± standard error of dose–response fit, n = 1, NB = no binding observed): > 200 µM; IC50 [4]: 350 µM
Cc1cc(/C=C/C#N)cc(C)c1Nc1ccnc(Nc2ccc(C#N)cc2)n1 [Rilpivirine, rilpivirine] |  |  |  |  |  |  | affinity for the NNIBP [5]: 0.73 nM
CCOC(=O)c1cnn2cccc(C#CC3CC3)c12 [compound 27, Ethyl 4-(Cyclopropylethynyl)pyrazolo[1,5-a]pyridine-3-carboxylate] | 11 ± 1 | 0.37 | 79 ± 7 | 187 ± 15 |  | 34 ± 8 | fold improvement on parent compound B-1 (recombinant WT HIV-1 RT; IC50 vs B-1 IC50 >1000 μM in the radioactive RT assay): > 20 fold; fold decrease in susceptibility, K103N/Y181C mutant compared to WT RT [6]: 3.0 fold; Kd [7]: 187 ± 15 µM; fold decrease in binding, K103N/Y181C double mutant vs WT [8]: 2–3 fold
